Assay results: ChEMBL document CHEMBL4177586, “Small molecule adjuvants that suppress both chromosomal and mcr-1 encoded colistin-resistance and amplify colistin efficacy in polymyxin-susceptible bacteria” (Bioorg Med Chem, 2017)
Values after ≈ are worked out from the molar mass of the structure shown. Active and inactive are the calls of the source. The calls are words filed in the database; no cut-off is given here.

Columns and labels:
[1] = test system: Acinetobacter baumannii; test: Reduction in lipid A modification in Acinetobacter baumannii ATCC 17978 at 30 uM incubated for 24 hrs by MALDI-TOF mass spectrometry; format: functional, organism-based
[2] = test system: Acinetobacter baumannii; test: Toxicity against multidrug resistant Acinetobacter baumannii 5075 incubated for overnight duration by CLSI based method; format: organism-based; settings: in vivo
[3] = test system: Acinetobacter baumannii; test: Toxicity against multidrug resistant Acinetobacter baumannii BAA1605 incubated for overnight duration by CLSI based method; format: organism-based; settings: in vivo
[4] = test system: Acinetobacter baumannii; test: Potentiation of colistin-induced antimicrobial activity against Acinetobacter baumannii SM1536 expressing mcr1 gene assessed as colistin MIC at 60 uM incubated for overnight duration by CLSI based method (reference value: 64 ug/ml); format: functional
[5] = test system: Escherichia coli; test: Potentiation of colistin-induced antimicrobial activity against Escherichia coli ATCC 25922 expressing mcr1 gene assessed as reduction in colistin MIC at 60 uM incubated for overnight duration by CLSI based method relative to colistin alone control; format: functional
[6] = test system: Acinetobacter baumannii; test: Potentiation of colistin-induced antimicrobial activity against colistin-resistant Acinetobacter baumannii PM3941 assessed as colistin MIC at 60 uM incubated for overnight duration by CLSI based method (reference value: 512 ug/ml); format: functional
[7] = test system: Acinetobacter baumannii; test: Potentiation of colistin-induced antimicrobial activity against colistin-resistant Acinetobacter baumannii PM3942 assessed as colistin MIC at 60 uM incubated for overnight duration by CLSI based method (reference value: 512 ug/ml); format: functional
[8] = test system: Acinetobacter baumannii; test: Potentiation of colistin-induced antimicrobial activity against colistin-resistant Acinetobacter baumannii PM4112 assessed as colistin MIC at 60 uM incubated for overnight duration by CLSI based method (reference value: 1024 ug/ml); format: functional
[9] = test system: Klebsiella pneumoniae; test: Potentiation of colistin-induced antimicrobial activity against colistin-resistant Klebsiella pneumoniae B9 assessed as colistin MIC at 60 uM incubated for overnight duration by CLSI based method (reference value: 512 ug/ml); format: functional
[10] = test system: Acinetobacter baumannii; test: Potentiation of colistin-induced antimicrobial activity against colistin-resistant Acinetobacter baumannii PM4112 assessed as colistin MIC at 30 uM incubated for overnight duration by CLSI based method (reference value: 1024 ug/ml); format: functional
[11] = test system: Klebsiella pneumoniae; test: Potentiation of colistin-induced antimicrobial activity against colistin-resistant Klebsiella pneumoniae B9 assessed as colistin MIC at 30 uM incubated for overnight duration by CLSI based method (reference value: 512 ug/ml); format: functional
[12] = test system: Klebsiella pneumoniae; test: Potentiation of colistin-induced antimicrobial activity against colistin-resistant Klebsiella pneumoniae C3 assessed as colistin MIC at 30 uM incubated for overnight duration by CLSI based method (reference value: 512 ug/ml); format: functional
[13] = test system: Klebsiella pneumoniae; test: Potentiation of colistin-induced antimicrobial activity against colistin-resistant Klebsiella pneumoniae C5 assessed as colistin MIC at 30 uM incubated for overnight duration by CLSI based method (reference value: 128 ug/ml); format: functional
[14] = test system: Acinetobacter baumannii; test: Potentiation of colistin-induced antimicrobial activity against colistin-resistant Acinetobacter baumannii PM3942 assessed as colistin MIC at 15 uM incubated for overnight duration by CLSI based method (reference value: 512 ug/ml); format: functional
[15] = test system: Klebsiella pneumoniae; test: Potentiation of colistin-induced antimicrobial activity against colistin-resistant Klebsiella pneumoniae B9 assessed as colistin MIC at 15 uM incubated for overnight duration by CLSI based method (reference value: 512 ug/ml); format: functional
[16] = test system: Klebsiella pneumoniae; test: Potentiation of colistin-induced antimicrobial activity against colistin-resistant Klebsiella pneumoniae C3 assessed as colistin MIC at 15 uM incubated for overnight duration by CLSI based method (reference value: 512 ug/ml); format: functional
[17] = test system: Klebsiella pneumoniae; test: Potentiation of colistin-induced antimicrobial activity against colistin-resistant Klebsiella pneumoniae C5 assessed as colistin MIC at 15 uM incubated for overnight duration by CLSI based method (reference value: 128 ug/ml); format: functional
[18] = test system: Klebsiella pneumoniae; test: Potentiation of colistin-induced antimicrobial activity against colistin-resistant Klebsiella pneumoniae C3 assessed as reduction in colistin MIC at 30 uM incubated for overnight duration by CLSI based method relative to colistin alone control; format: functional
[19] = test system: Klebsiella pneumoniae; test: Potentiation of colistin-induced antimicrobial activity against colistin-resistant Klebsiella pneumoniae C5 assessed as reduction in colistin MIC at 30 uM incubated for overnight duration by CLSI based method relative to colistin alone control; format: functional
[20] = test system: Klebsiella pneumoniae; test: Potentiation of colistin-induced antimicrobial activity against colistin-resistant Klebsiella pneumoniae C3 assessed as reduction in colistin MIC at 15 uM incubated for overnight duration by CLSI based method relative to colistin alone control; format: functional

Structure (SMILES): CCCCCCc1ccc(-c2cn(C(C)C)c(N)n2)cc1
- Activity [1]: Active

Structure (SMILES): CCCCCCc1ccc(-c2cn(CC)c(N)n2)cc1
- MIC [2]: 200 µM (≈ 54.3 µg/mL)
- MIC [3]: 200 µM (≈ 54.3 µg/mL)

Structure (SMILES): CCCCCc1ccc(C(=O)NCCn2cc(CCCCCc3cnc(N)n3Cc3ccc(CCCC)cc3)nn2)cc1
- MIC [4]: 1 µg/mL
- fold change (FC) [5]: 256
- MIC [6]: 8 µg/mL
- MIC [7]: 4 µg/mL
- MIC [8]: 8 µg/mL
- MIC [9]: 4 µg/mL
- MIC [10]: 16 µg/mL
- MIC [11]: 8 µg/mL
- MIC [12]: 16 µg/mL
- MIC [13]: 4 µg/mL
- MIC [14]: 32 µg/mL
- MIC [15]: 32 µg/mL
- MIC [16]: 64 µg/mL
- MIC [17]: 32 µg/mL
- fold change (FC) [18]: 32
- fold change (FC) [19]: 32
- fold change (FC) [20]: 8
